Experimental data from US8592394B2, “Synthetic derivatives beta glycolipids and compositions thereof for the treatment of pathologic disorders” (Enzo Therapeutics, Inc., priority 2003, dated 2013).

Assays:
B6 splenocytes = experiment: In vitro stimulation of splenocytes: [3H] thymidine incorporation (proliferation); assay type: cell-based, mouse; details: 72-h cultures, graded amounts
Method: (§1) Splenocytes were prepared as described above and plated at 2.0×10^5 cells per well in 96-well plates in RPMI-1640 supplemented with 5% FCS, […] 2-mercaptoethanol, 2 mM glutamine, 1% sodium pyruvate, and antibiotics. Titrated volumes of GC, α-GalCer, and ALIB-97 diluted in DMSO were added at final concentrations of 100 ng, 1 μg, and 10 μg/ml. After 72 h of culture, 1 μCi of [^3H] thymidine (Amersham Biosciences) was added to each well, and the cells were cultured for an additional 16 to 18 h. Cells were harvested with a cell harvester (Tomtec, Orange, Conn.), and the uptake of radioactivity was measured with a β-plate reader. To evaluate IFN-γ secretion in vitro, supernatants were harvested after 90 h of culture with glycolipids and stored until the cytokine levels were measured by ELISA.

liver = details: mice, cited from earlier work
mouse splenocytes = experiment: In vitro stimulation of splenocytes: supernatant IFN-γ by ELISA; assay type: cell-based; details: CD1d−/− splenocytes
Method: as §1

JNK2 = experiment: Western blot of liver extracts of ob/ob mice: JNK2 activation; assay type: in vivo; details: per os daily 4 weeks, 45 μg (group C)
Method: (§2) For analysis of whole tissue lysates, snap-frozen liver pieces were homogenized in 0.75 ml of ice-cold PBS and centrifuged at 4° C. for 5 min in 2000 rpm. Pellets were lysed with 50 mM beta glycerophosphate, 1.5 mM EGTA, PH 7.3, 1 mM EDTA, PH 7.3, 1 mM DTT, 0.1 mM Sodium vanadate, 1% NP-40, and cocktails of protease and phosphatase (Sigma, Rehovot, Israel).
(§3) Lysates were centrifuged twice at 4° C. for 10 minutes in 14000 rpm. Equivalent amounts of lysates (15 μg/lane), determined by Bradford assay (Bio-Rad, Rehovot, Israel), were separated by sodium dodecyl sulfate polyacrylamide gel electrophoresis (SDS-PAGE) and transferred to nitrocellulose membranes.
(§4) For metabolic syndrome experiments, proteins were detected with JNK-2, Phospho JNK (Thr183/Tyr185), Akt and phospho Akt (Ser 473) antibodies (Cell Signaling Technologies, MA). β-actin (abcam, UK) was used as the loading control.
(§5) Blots were developed with horseradish peroxidase-conjugated secondary antibodies (Jackson Laboratories Bar Harbor, Me.) and Western Blot-Luminol Reagent (Santa Cruz Biotechnology, CA, USA). Cell counting and western Blot quantification was performed using total Lab (Phoretix, USA) software.
(§6) Therefore, five groups of male C57BL/6 Ob/Ob mice were studied. […]

AKT = experiment: Western blot of liver extracts of ob/ob mice: AKT activation; assay type: in vivo; details: per os daily 4 weeks, 45 μg (group C)
Method: as §2, §3, §4, §5, §6

fat-associated T cells = experiment: Flow cytometry of T cell subsets in adipose tissue, stromal vascular cells and spleen of ob/ob mice; assay type: in vivo; details: 15 and 45 μg per os daily 4 weeks
Method: Splenocytes and intrahepatic lymphocytes were isolated as follows: livers and spleens were kept in RPMI-1640+FCS. Then spleens were crushed through a 70 μm nylon cell strainer (Falcon) and centrifuged (1250 rpm for 7 min) for the removal of cell debris. Red blood cells were lysed with 1 ml of cold 155 mM ammonium chloride lysis buffer and centrifuged (1250 rpm for 3 min). Splenocytes were resuspended with 1 ml RPMI+FCS. Cell viability by trypan blue staining was above 90%. For intrahepatic lymphocytes, livers were crushed through a stainless mesh (size 60, Sigma) and the cell suspension was placed in a 50-ml tube for 5 min. Lymphoprep (10 ml, Ficoll, Axis-Shield PoC AS, Oslo, Norway) was placed under similar volume of cell suspension in 50-ml tubes. Tubes were centrifuged at 1800 rpm for 18 min. Cells in the interface were collected and centrifuged at 1800 rpm for 10 min, to obtain a pellet of cells depleted of hepatocytes to a final volume of 250 μl. Approximately 1×10^6 cells/mouse liver, were recovered.
Adipose tissue (visceral fat pads) was minced and incubated in Krebs-Ringer bicarbonate buffer (3 mL/g adipose tissue) containing 10mM glucose and 2.5% bovine serum albumin, incubated with 840 U/g collagenase type I (Sigma, Rehovot, Israel)) at 37° C. for 1 hour. Cells were filtered twice through chiffon mesh (100 μm) and centrifuged 50 g for 5 min. Floating adipocytes were separated from pelleted S/V fraction. The infranatant fraction was removed and centrifuged at 200 g for five minutes to pellet the S/V cells.
For metabolic syndrome experiments, the following antibodies were used for flow cytometry: anti-CD4-Pacific Blue, anti-CD8-FITC, anti-IL-17-PE, anti CD25-PercP-Cy5.5 and anti FOX3p PE-Cy725 (all from eBioscience, San Diego, Calif.). Surface staining was performed by incubating cells with antibodies and anti-CD16/32 (blocks Fc, eBioscience) at 4° C. in FACS buffer containing PBS and 0.5% BSA, for 30 min. Cells were washed twice with FACS buffer, resuspended in FACS buffer, and analyzed by flow cytometry. Appropriate isotype controls were used in all experiments. Intracellular staining was performed using Foxp3 staining buffer kit (eBioscience, San Diego, Calif.). Cells were incubated with 1 ml Fixation/Permeabilization solution for 50 min, washed twice with Permeabilization buffer and incubated with anti-Foxp3 Ab for 50 min. Cells were then washed twice with Permeabilization buffer and resuspended with FACS buffer. Analysis was performed using a FACSCalibur instrument (Becton Dickinson, San Jose, Calif.) with FCS express V.3 software (DeNovo software, Los Angeles, Calif.).
(§7) Therefore, five groups of male C57BL/6 Ob/Ob mice were studied. Mice (6 per group) were fed (per os) daily for 4 weeks with 15 or 45 μg of GC (groups B and C, respectively) and 15 or 45 μg of ALIB-97 (groups D and E, respectively). Control mice (Group A) were administered vehicle only.

ob/ob mice [1] = experiment: Fasting glucose and glucose tolerance test in ob/ob mice; assay type: in vivo
Method: Mice underwent a glucose tolerance test (GTT) on day 30 after overnight fasting. Glucose was administered orally (1.25 g per kg). Serum glucose measurements were performed on tail-vein blood every 15 min for 3 h. Glucose levels were measured by a standard glucometer.
as §7

ob/ob mice [2] = experiment: Serum ALT and AST (hepatic injury) in ob/ob mice; assay type: in vivo; details: day 30, 45 μg per os daily, vehicle group A 710
Method: The effect of β-glycolipids on liver injury was evaluated by serum aspartyl transaminase (AST) and alanine aminotransferase (ALT) activities, which were determined by a clinical chemistry analyzer, Reflovet Plus (Roche Diagnostics, GmbH, Mannheim, Germany).
as §7

[3] = humans, preliminary data; cited from earlier work

Compound	cell proliferation ([3H] thymidine incorporation) (B6 splenocytes)	hepatotoxicity (liver)	IFN-γ secretion (mouse splenocytes)	activation of JNK2 (JNK2)	increase of AKT activation (AKT)	CD4+IL17+ / CD4+CD25+ ratio in adipose tissue (fat-associated T cells)	CD4IL17/CD4CD25FOXP3 ratio in the SVC (fat-associated T cells)	CD4IL17/CD4CD25FOXP3 ratio in the spleen (fat-associated T cells)	CD4IL17/CD4CD25 ratio in the spleen (fat-associated T cells)	ratio between CD4+IL17+ and CD4+CD25+FOXP3+ cells in adipose tissue (fat-associated T cells)	time at which the decrease in glucose levels (GTT, relative to time 0) reached statistical significance (ob/ob mice [1]; day 30, 15 μg per os daily)	time at which the decrease in glucose levels (GTT, relative to time 0) reached statistical significance (ob/ob mice [1]; day 30, 45 μg per os daily)	serum AST (ob/ob mice [2])	liver injury (liver; oral administration)	safety and biological activity [3]
CCCCCCCCCCCCCCCCCCCCCCCCCC(=O)N[C@@H](CO[C@H]1O[C@H](CO)[C@H](O)[C@H](O)[C@H]1O)[C@H](O)[C@H](O)CCCCCCCCCCCCCC [αGalCer, α-Galctosyl-ceramide]	induced	hepatotoxic	–	–	–	–	–	–	–	–	–	–	–	–	–
β-glucosylceramide [GC, reference compound]	–	–	capable of activating	60%	43%	reversal	reduction	reduction	reduction	dose dependent shift towards tolerance	120 min	120 min	330 u/L	not associated with liver injury	safe and biologically active
